Data taken from ChEMBL document CHEMBL1201862, “PubChem BioAssay data set” (2004).
Values joined by “and” are separate entries in the source; they are usually repeats but may differ in a detail not shown here. Equal values may be shown once. Active and inactive are the calls of the source.

Legend:
[1] = HEp-2 cell cytotoxicity, dose response, cytotoxicity control for RSV inhibitor project, HTS (AID 2410); assay type: functional; details: human respiratory syncytial virus
[2] = microbe, parasite or virus in culture; assay type: functional; details: Mycobacterium tuberculosis
[3] = Luminescence Cell-Based Dose Retest to Confirm Inhibitors of Cancer Stem Cells. [Related pubchem assays (depositor defined):AID2717, AID2721]; assay type: functional; details: Homo sapiens
Vero [4] = assay: cells; assay type: functional, cell-based; details: Chlorocebus sabaeus
Vero [5] = assay: cells; assay type: functional; details: Chlorocebus sabaeus
[6] = target: T1, Polyadenylate-binding protein 1 (Homo sapiens, UniProt P11940); assay: PABP1 MLLE–PAM2 interaction inhibitors, dose response, miRNA deadenylation inhibitor project, biochemical, fluorescence polarization, Cy5-PAM2 peptide, secondary (AID 602260); assay type: functional; details: read-out: IC50_Mean
T1 sequence (P11940 whole entry): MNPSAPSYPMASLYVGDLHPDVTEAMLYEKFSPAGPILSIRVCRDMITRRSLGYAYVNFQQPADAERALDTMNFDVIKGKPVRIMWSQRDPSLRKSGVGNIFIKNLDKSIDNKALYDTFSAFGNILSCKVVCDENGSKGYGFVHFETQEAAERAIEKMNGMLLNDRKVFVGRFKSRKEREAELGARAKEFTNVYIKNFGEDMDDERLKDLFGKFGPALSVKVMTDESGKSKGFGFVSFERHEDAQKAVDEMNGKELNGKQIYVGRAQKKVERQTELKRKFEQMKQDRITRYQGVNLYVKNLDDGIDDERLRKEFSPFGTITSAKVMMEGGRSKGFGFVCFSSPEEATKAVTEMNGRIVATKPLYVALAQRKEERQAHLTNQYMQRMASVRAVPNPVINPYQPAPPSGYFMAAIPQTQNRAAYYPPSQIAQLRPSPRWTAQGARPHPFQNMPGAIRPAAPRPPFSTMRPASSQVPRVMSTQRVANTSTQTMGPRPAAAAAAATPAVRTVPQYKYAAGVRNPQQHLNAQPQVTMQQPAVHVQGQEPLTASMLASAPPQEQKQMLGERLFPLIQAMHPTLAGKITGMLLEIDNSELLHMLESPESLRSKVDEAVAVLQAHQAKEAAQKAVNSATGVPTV

[7] = target: T1, Polyadenylate-binding protein 1; assay: PABP1 MLLE–PAM2 binding inhibitor potency, dose response, biochemical, fluorescence polarization, FITC-PAM2 peptide (AID 602259); assay type: functional; details: read-out: IC50_Mean
Escherichia coli = assay: microbe, parasite or virus in culture
BJ [8] = assay: cytotoxicity toward BJ-TERT fibroblasts, dose response, cell-based, RAS-independent, luminescence (AID 1933); assay type: functional; details: Homo sapiens
BJ [9] = assay: cells; assay type: functional, cell-based; details: Homo sapiens
BJ [10] = assay: cytotoxicity toward BJ-TERT-LT-ST fibroblasts, dose response, cell-based, RAS-independent, luminescence (AID 1935); assay type: functional; details: Homo sapiens;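 also: BJ fibroblasts immortalized with TERT plus LT and ST oncogenes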
[11] = cytotoxicity toward DRD oncogenic fibroblasts, dose response, cell-based, non-viral oncogenic, luminescence (AID 1934); assay type: functional; details: Homo sapiens
[12] = target: T2, Microphthalmia-associated transcription factor (Homo sapiens, UniProt O75030); assay: TRPM1 promoter luciferase signal decrease, dose response, MITF inhibitor project, cell-based, SK-MEL-5, cherry-picked, set 3 (AID 493073); assay type: functional
T2 sequence (O75030 whole entry): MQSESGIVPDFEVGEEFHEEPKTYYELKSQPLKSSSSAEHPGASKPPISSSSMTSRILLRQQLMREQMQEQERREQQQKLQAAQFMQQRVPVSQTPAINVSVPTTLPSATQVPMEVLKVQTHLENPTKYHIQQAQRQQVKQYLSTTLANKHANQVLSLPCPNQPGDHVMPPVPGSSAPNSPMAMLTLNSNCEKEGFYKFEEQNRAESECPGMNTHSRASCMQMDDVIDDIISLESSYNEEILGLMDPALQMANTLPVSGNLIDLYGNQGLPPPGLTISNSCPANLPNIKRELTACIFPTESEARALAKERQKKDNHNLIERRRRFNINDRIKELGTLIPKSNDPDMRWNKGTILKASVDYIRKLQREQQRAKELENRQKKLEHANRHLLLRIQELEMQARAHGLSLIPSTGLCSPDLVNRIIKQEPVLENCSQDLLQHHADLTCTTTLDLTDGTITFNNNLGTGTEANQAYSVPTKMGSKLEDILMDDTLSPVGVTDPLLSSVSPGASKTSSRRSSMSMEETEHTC

Caspase-3 = target: T3, Caspase-3 (Homo sapiens, UniProt P42574); assay type: functional;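 also: Dose-response selectivity test against caspase-3 for candidate inhibitors of sentrin-specific proteases (SENPs)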
T3 sequence (P42574 whole entry): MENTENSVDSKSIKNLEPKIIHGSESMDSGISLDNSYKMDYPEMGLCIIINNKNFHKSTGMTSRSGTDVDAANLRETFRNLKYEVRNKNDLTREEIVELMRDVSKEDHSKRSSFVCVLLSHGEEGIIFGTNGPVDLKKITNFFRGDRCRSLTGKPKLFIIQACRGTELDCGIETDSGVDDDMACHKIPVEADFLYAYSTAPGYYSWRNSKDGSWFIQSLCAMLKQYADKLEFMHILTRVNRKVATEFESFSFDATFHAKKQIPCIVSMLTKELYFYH

[13] = target: T4, Sentrin-specific protease 7 (Homo sapiens, UniProt Q9BQF6); assay type: functional;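 also: Luminescence-based dose-response confirmation of ultra-high-throughput screening hits, measuring inhibition of SENP7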
T4 sequence (Q9BQF6 whole entry): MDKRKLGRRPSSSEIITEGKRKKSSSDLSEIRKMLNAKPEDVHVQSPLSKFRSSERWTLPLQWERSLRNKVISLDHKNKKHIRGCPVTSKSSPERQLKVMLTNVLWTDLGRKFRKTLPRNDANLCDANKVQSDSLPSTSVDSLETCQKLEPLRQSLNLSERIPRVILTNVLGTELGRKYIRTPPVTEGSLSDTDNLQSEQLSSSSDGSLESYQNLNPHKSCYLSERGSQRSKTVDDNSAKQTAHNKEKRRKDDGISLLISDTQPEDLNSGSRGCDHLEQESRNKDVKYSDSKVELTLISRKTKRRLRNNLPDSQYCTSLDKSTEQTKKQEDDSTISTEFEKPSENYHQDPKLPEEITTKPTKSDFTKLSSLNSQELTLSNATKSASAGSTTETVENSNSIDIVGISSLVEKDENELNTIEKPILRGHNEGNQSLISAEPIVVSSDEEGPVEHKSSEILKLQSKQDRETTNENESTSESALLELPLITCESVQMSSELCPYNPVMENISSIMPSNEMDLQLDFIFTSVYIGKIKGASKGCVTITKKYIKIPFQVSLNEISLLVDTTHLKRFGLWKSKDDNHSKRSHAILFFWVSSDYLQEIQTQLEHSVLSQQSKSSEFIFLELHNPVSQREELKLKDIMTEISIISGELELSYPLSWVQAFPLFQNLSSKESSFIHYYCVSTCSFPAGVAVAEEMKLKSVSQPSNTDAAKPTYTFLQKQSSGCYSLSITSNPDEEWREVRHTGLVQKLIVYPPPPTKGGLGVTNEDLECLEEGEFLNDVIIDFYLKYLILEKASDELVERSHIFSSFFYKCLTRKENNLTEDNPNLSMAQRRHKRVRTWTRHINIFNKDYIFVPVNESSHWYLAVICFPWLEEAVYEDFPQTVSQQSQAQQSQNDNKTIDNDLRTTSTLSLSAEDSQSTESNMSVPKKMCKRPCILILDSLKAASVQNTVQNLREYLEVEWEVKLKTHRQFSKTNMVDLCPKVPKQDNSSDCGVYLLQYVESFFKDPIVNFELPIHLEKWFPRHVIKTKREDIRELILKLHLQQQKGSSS

[14] = target: T5, Sentrin-specific protease 6 (Homo sapiens, UniProt Q9GZR1); assay type: functional;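 also: Luminescence-based dose-response confirmatory assay of SENP6 inhibition, following up an ultra-high-throughput screen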
T5 sequence (Q9GZR1 whole entry): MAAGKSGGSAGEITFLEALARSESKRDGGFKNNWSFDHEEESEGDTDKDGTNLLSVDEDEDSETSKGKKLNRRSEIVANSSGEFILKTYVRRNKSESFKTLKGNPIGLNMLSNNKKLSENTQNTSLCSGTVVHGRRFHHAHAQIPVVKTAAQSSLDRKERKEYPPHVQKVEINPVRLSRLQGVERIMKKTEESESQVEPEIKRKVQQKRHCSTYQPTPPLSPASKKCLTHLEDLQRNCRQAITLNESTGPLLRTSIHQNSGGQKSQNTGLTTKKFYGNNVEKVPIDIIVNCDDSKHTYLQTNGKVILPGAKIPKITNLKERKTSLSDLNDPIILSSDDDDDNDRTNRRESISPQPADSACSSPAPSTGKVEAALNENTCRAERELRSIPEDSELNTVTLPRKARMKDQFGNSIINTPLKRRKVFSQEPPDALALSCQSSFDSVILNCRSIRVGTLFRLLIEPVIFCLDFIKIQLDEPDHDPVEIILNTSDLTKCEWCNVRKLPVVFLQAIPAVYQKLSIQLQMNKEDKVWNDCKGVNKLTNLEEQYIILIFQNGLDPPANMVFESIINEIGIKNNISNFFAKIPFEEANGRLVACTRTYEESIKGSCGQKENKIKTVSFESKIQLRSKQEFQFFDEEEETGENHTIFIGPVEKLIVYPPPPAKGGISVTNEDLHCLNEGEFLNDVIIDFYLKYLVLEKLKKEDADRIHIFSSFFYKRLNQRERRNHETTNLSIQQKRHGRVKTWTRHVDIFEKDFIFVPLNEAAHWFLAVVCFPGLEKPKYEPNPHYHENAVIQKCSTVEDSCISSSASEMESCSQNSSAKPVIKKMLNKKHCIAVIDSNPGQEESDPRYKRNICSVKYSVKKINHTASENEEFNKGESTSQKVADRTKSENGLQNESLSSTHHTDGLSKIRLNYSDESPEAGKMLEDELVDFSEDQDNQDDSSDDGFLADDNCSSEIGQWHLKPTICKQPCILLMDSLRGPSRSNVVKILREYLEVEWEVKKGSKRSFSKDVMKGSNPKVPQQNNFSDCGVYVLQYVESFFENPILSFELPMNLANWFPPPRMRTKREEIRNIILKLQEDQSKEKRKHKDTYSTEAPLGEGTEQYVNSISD

[15] = target: T6, Sentrin-specific protease 8 (Homo sapiens, UniProt Q96LD8); assay type: functional;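 also: luminescence read-out of SENP8 inhibition, dose-response confirmation following an ultra-high-throughput screen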
T6 sequence (Q96LD8 whole entry): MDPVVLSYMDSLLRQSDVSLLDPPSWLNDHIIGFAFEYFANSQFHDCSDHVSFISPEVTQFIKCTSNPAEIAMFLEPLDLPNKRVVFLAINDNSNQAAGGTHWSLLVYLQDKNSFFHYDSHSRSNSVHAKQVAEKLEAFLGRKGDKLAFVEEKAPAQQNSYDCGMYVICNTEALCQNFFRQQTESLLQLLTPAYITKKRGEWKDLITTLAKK

[16] = THP-1 cell cytotoxicity, dose response, cytotoxicity control for non-replicating M. tuberculosis project (AID 489025); assay type: functional
[17] = target: Glucose-6-phosphate 1-dehydrogenase (Homo sapiens, UniProt P11413); assay: human G6PD enzyme inhibitors, dose response, selectivity assay for P. falciparum G6PD inhibitor project, biochemical, fluorescence (AID 504792); assay type: functional
Sequence of Glucose-6-phosphate 1-dehydrogenase (P11413 whole entry): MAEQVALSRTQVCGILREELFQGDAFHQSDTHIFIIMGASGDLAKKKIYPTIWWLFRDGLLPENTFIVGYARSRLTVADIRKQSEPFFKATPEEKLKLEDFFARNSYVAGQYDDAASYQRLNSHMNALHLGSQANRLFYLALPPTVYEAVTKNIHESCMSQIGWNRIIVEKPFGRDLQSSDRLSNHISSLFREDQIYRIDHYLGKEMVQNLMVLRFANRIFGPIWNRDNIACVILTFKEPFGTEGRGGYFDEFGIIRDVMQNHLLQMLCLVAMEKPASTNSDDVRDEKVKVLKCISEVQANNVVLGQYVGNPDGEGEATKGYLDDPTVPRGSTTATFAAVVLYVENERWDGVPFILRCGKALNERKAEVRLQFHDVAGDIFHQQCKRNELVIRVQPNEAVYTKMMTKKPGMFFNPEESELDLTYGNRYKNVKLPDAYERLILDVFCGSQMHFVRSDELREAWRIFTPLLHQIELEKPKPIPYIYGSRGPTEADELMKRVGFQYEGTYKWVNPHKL

Hexokinase = target: T7, Hexokinase (Trypanosoma brucei, UniProt Q38C41); assay: Confirmation assay for inhibitors of Trypanosoma brucei hexokinase 1-Analogue-first series. [Related pubchem assays (depositor defined):AID1430, AID1632, AID2516, AID2560, AID2579, AID2600, AID449725, AID492951]; assay type: functional
T7 sequence (Q38C41 whole entry): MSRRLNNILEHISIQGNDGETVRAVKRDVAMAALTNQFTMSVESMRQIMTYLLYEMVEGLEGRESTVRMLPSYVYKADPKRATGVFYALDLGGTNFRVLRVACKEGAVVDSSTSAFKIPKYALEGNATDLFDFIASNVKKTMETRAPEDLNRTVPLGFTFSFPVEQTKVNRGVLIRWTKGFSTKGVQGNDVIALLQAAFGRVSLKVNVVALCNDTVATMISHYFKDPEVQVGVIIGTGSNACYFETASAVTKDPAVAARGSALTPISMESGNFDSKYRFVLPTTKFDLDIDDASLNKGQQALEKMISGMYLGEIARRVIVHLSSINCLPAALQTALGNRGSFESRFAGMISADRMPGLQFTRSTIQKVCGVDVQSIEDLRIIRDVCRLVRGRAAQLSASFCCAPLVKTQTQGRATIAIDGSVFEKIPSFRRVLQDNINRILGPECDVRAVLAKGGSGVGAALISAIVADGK

[18] = A Cell Based Secondary Assay To Explore Cytotoxicity of Compounds that Sensitize Mycobacterium Tuberculosis to Beta-Lactam Antibiotics.; assay type: functional
[19] = target: Eukaryotic translation initiation factor 4E (Mus musculus, UniProt P63073); assay: eIF4E–eIF4G protein interaction inhibitors, dose response, biochemical, TR-FRET (AID 855); assay type: functional;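 also: potency for disrupting eIF4E binding to eIF4GI seen as loss of FRET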
Sequence of Eukaryotic translation initiation factor 4E (P63073 whole entry): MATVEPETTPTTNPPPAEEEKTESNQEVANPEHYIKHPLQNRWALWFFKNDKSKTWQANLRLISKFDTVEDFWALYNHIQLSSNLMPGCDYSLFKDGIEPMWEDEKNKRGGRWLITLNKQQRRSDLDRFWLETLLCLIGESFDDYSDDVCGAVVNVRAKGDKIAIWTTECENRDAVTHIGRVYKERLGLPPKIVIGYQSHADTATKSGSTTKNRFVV

COc1ccc(C(=O)/C=C/c2cc(OC)c(O)c(OC)c2)c(F)c1
CC50 [1]: 14.3 µM (active)
CC50 [2]: 25.7 µM (active)
AC50 [3]: 7.21 µM (active)
IC50 (Vero [4]): > 25 µM (active)
CC50 (Vero [5]): 18.7 µM (active)

CCCCc1c(O)nc(SCC(=O)c2ccccc2)nc1O
IC50 [6]: > 66 µM (inactive)
IC50 [7]: > 66 µM (inactive)
AC50 (Escherichia coli): 30.3 µM (active)

CCCN(CC(=O)Nc1ccccc1C)C(=O)CCl
EC50 (BJ [8]): 4 µM (active)
EC50 (BJ [9]): 14.9 µM (inconclusive)
EC50 (BJ [10]): > 150 µM (inconclusive)
EC50 [11]: 8.23 µM (active)
AC50 [12]: 4.04 µM (active)
CC50 (Vero [5]): 9.42 µM (active)

Cc1cccc(NC(=O)[C@H](Cc2c[nH]c3ccccc23)NC(=O)[C@@H]2Cc3ccccc3CN2)c1
EC50 (BJ [8]): 28.3 µM (active)
EC50 (BJ [9]): 26.9 µM (active)
EC50 (BJ [10]): > 150 µM (not active)
EC50 [11]: 71.3 µM (active)
IC50 (Vero [4]): 4.39 µM (active)
CC50 (Vero [5]): 19.4 µM (active)

O=C(NNC(=S)NC(=O)c1sc2ccccc2c1Cl)c1ccc(Cl)cc1
IC50 (Vero [4]): 10 µM (active)
CC50 (Vero [5]): > 25 µM (active)

COCc1cc(C)n(CC(=O)NC(C)c2ccccc2)c(=O)c1C#N (stereo not drawn)
AC50 (Escherichia coli): 27.1 µM (active)

Cc1nc(Nc2ccc(C(=O)O)cc2)sc1-c1ccccc1
IC50 (Caspase-3): 10.9 µM (active)
IC50 [13]: 797 nM (active)
IC50 [14]: 787 nM (active)
IC50 [15]: 1.88 µM (active)

O=C(NCc1cccc(Cl)c1)c1cnn2c1NC(c1ccco1)CC2C(F)(F)F (stereo not drawn)
AC50 (Escherichia coli): 24.2 µM (active)

Cc1cccc(NCc2ccc([N+](=O)[O-])s2)c1
CC50 [16]: > 40 µM (active)

CCC1Oc2nc(SC)nnc2-c2ccccc2N1C(=O)c1ccccc1 (stereo not drawn)
AC50 (Escherichia coli): 24.1 µM (active)

N#CC(C#N)=C1C=CC=CN1/C(=C\c1ccccc1Cl)C(=O)c1ccccc1
IC50 [17]: > 80 µM (inactive)
IC50 (Vero [4]): > 25 µM (active)
CC50 (Vero [5]): 24.5 µM (active)

CC1(c2ccc(C(=O)Nc3cc(Cl)ccc3C(=O)O)cc2)CC1
IC50 (Hexokinase): 8 µM (active) and 4.24 µM (active)

CN(C)c1cccc(NC(=O)Cn2sc3ccccc3c2=O)c1
IC50 (Hexokinase): 8.21 µM (active)

O=c1c2ccccc2[s+]([O-])n1-c1ccc(Cl)cc1 (stereo not drawn)
IC50 (Hexokinase): > 25 µM (inactive)

COc1ccccc1NC(=O)Cn1sc2ccccc2c1=O
IC50 (Hexokinase): 6.28 µM (active)

COC(CN(C)C(=O)C1CCCN(S(=O)(=O)c2ccc3c(c2)oc(=O)n3C)C1)OC (stereo not drawn)
AC50 (Escherichia coli): 27.3 µM (active)

O=C(N/N=C/c1ccc2c(c1)OCO2)c1sc2cc(Cl)ccc2c1Cl
CC50 [18]: > 40 µM (active)
IC50 [19]: > 64 µM (inactive)

COc1cc(/C=N/NC(=O)c2cc(-c3cccc(OC(C)C)c3)nc3ccccc23)ccc1O
CC50 [1]: 15.5 µM (active)
IC50 (Vero [4]): > 25 µM (active)
CC50 (Vero [5]): > 25 µM (active)
